Laboratory results from patent US20240182406A1, “COMPOUNDS AS SOLUBLE EPOXIDE HYDROLASE INHIBITORS” (UNIVERSITAT DE BARCELONA, priority 2021, published 2024).
Marks after values point to notes of the source that are not given here.

Columns and labels:
[1] = In vitro determination of microsomal stability; format: in vitro ADME; conditions: human microsomes, 37° C., samples at 0-60 min
Protocol: The human recombinant microsomes employed were purchased from Tebu-Xenotech. […] Samples (75 μL) were taken from each well at 0, 10, 20, 40 and 60 min and transferred to a plate containing 4° C. 75 μL acetonitrile and 30 μL of 0.5% formic acid in water were added for improving the chromatographic conditions. The plate was centrifuged (46000 g, 30 min) and supernatants were taken and analyzed in a UPLC-MS/MS (Xevo-TQD, Waters) by employing a BEH C18 column and an isocratic gradient of 0.1% formic acid in water:0.1% formic acid acetonitrile (60:40). The metabolic stability of the compounds was calculated from the logarithm of the remaining compounds at each of the time points studied.

mouse primary microglia = experiment: AβO-induced microglial activation, qPCR; format: cell-based; conditions: pretreated with compound followed by Aβ1-42 (2 μM)
Protocol: To validate the inhibition efficacy of sEH, 3×10^5 microglia isolated from CD1 mouse brain were seeded onto 12 well culture plates in microglia medium.
Total RNAs were isolated from microglia or astrocyte using a Quick-RNA kit (Zymo Research, Inc., Irvine, CA, USA). The concentration of total RNAs was measured using a UV-Vis spectrophotometer (NanoDrop8000, Thermo Fisher Scientific Inc., Wilmington, DE, USA) and reverse-transcribed with a high-capacity cDNA reverse transcription kit (Applied Biosystems, Carlsbad, CA, USA). Gene expression was quantified by Fast SYBR green real-time PCR on a Quantstudio 5 system (Applied Biosystems). The primer sequences are listed below (Table 8). Data were analyzed according to the comparative Ct method. Glyceraldehyde 3-phosphate dehydrogenase (Gapdh) was used to normalize the amounts of cDNA within each sample.

TREM2 = experiment: Western blot of hippocampus, neuroinflammation marker TREM2 (5×FAD mice); format: in vivo, mouse; conditions: 5×FAD male mice, 5 mg/kg, 4 weeks, Arbitrary Units, control as 100%
Description: 5×FAD (tg6799) is an early-onset mouse transgenic model which overexpress mutant human APP(695) with the Swedish (K670N, M671L), Florida (I716V) and London (V717I) Familial Alzheimer's Disease (FAD) mutations along with human PS1 harbouring two FAD mutations (M146L and L286V). The Tg6799 line used is the original hybrid B6SJL background, and this hybrid B6SJL strain is used as a control of healthy animals. The mouse Thy1 promoter regulates both transgenes to drive overexpression in the brain. 5×FAD mice recapitulate major features of AD amyloid pathology and is a useful model of intraneuronal Abeta-42 induced neurodegeneration with amyloid increase brain content and amyloid plaque formation and tau hyperphosphorylation (J Neurosci. 2006, 26(40), 10129-10140).
The test compound was dissolved in 1.8% hydroxypropyl-beta-cyclodextrin and concentration in water was calculated according to the weekly animal consumption to reach the precise daily dose. A freshly made weekly replaces the drinking solution. The amount of water that the animals drink was monitored weekly, by the cage, and drug concentration was adjusted every week to reach the precise dose. […]
Afterwards, membranes were washed and incubated with secondary antibodies for 1 h at room temperature. […] Immunodetection of GADPH routinely monitored protein loading. […]

For `O=C(NC12CC3CC(Cl)(CC(C1)c1ccccc13)C2)N[C@H]1CC[C@H](Oc2ccc(C(=O)O)cc2)CC1` [Example 2, 4-[((1r,4r)-4-(3-(9-chloro-5,6,8,9,10,11-hexahydro-7H-5,9:7,11-dimethanobenzo[9]annulen-7-yl)ureido)cyclohexyl)oxy]benzoic acid], the “Microsomal stability (% remanent)” value [1] was 89%, the “mRNA for pro-inflammatory cytokines II-6 and II-1b” value (mouse primary microglia) was “prevented” and the TREM2 protein levels (TREM2; listed as Cpd. Ex. 2) was 118.42 ± 6.53*^. For the same compound, the TREM2 protein levels (TREM2; listed as compound of example 2) was “significant diminution in the protein levels”.
